Test results reported in the supplement of paper PMC10307832.

Key:
Experiment in all cases: relative viability (nuclei count vs DMSO), 5 days (fraction); higher = more cells survive
Axitinib + Bortezomib = compound: CNC(=O)c1ccccc1Sc1ccc2c(/C=C/c3ccccn3)n[nH]c2c1 [Axitinib] + CC(C)C[C@H](NC(=O)[C@H](Cc1ccccc1)NC(=O)c1cnccn1)B(O)O [Bortezomib] (partner 0.002 µM)
Method in brief: (§1)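 Each reported value is a median over duplicate plates. It expresses relative viability: treated-well nuclei count divided by vehicle-well nuclei count. Lung cancer cell lines in 1536-well plates were dosed by pin tool a day after seeding, alone with one drug or with a fixed anchor-drug dose plus five library-drug doses (not always all listed) in √10 steps, and nuclei were counted after 5 days.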

Bemcentinib + Foretinib = compound: Nc1nc(Nc2ccc3c(c2)CC[C@@H](N2CCCC2)CC3)nn1-c1cc2c(nn1)-c1ccccc1CCC2 [Bemcentinib] + COc1cc2c(Oc3ccc(NC(=O)C4(C(=O)Nc5ccc(F)cc5)CC4)cc3F)ccnc2cc1OCCCN1CCOCC1 [Foretinib] (partner 0.25 µM)
Method in brief: as §1

Bemcentinib + Lapatinib = compound: Nc1nc(Nc2ccc3c(c2)CC[C@@H](N2CCCC2)CC3)nn1-c1cc2c(nn1)-c1ccccc1CCC2 [Bemcentinib] + CS(=O)(=O)CCNCc1ccc(-c2ccc3ncnc(Nc4ccc(OCc5cccc(F)c5)c(Cl)c4)c3c2)o1 [Lapatinib] (partner 2 µM)
Method in brief: as §1

Bemcentinib + Crizotinib = compound: Nc1nc(Nc2ccc3c(c2)CC[C@@H](N2CCCC2)CC3)nn1-c1cc2c(nn1)-c1ccccc1CCC2 [Bemcentinib] + C[C@@H](Oc1cc(-c2cnn(C3CCNCC3)c2)cnc1N)c1c(Cl)ccc(F)c1Cl [Crizotinib] (partner 1 µM)
Method in brief: as §1

| Cell Line | relative viability (Axitinib + Bortezomib; first compound 0.005 µM) | relative viability (Axitinib + Bortezomib; first compound 0.01581 µM) | relative viability (Axitinib + Bortezomib; first compound 0.05 µM) | relative viability (Axitinib + Bortezomib; first compound 0.1581 µM) | relative viability (Axitinib + Bortezomib; first compound 0.5 µM) | relative viability (Bemcentinib + Foretinib; first compound 0.04 µM) | relative viability (Bemcentinib + Foretinib; first compound 0.1265 µM) | relative viability (Bemcentinib + Foretinib; first compound 0.4 µM) | relative viability (Bemcentinib + Foretinib; first compound 1.265 µM) | relative viability (Bemcentinib + Foretinib; first compound 4 µM) | relative viability (Bemcentinib + Lapatinib; first compound 0.04 µM) | relative viability (Bemcentinib + Lapatinib; first compound 0.1265 µM) | relative viability (Bemcentinib + Lapatinib; first compound 0.4 µM) | relative viability (Bemcentinib + Lapatinib; first compound 1.265 µM) | relative viability (Bemcentinib + Lapatinib; first compound 4 µM) | relative viability (Bemcentinib + Crizotinib; first compound 0.04 µM) | relative viability (Bemcentinib + Crizotinib; first compound 0.1265 µM) | relative viability (Bemcentinib + Crizotinib; first compound 0.4 µM) | relative viability (Bemcentinib + Crizotinib; first compound 1.265 µM) | relative viability (Bemcentinib + Crizotinib; first compound 4 µM) |
| --- | --- | --- | --- | --- | --- | --- | --- | --- | --- | --- | --- | --- | --- | --- | --- | --- | --- | --- | --- | --- |
| COR-L 105 | 0.748 | 0.868 | 0.798 | 0.758 | 0.92 | 1.43 | 1.27 | 1.01 | 0.856 | 0.993 | 0.311 | 0.327 | 0.416 | 0.338 | 0.394 | 0.638 | 0.843 | 0.969 | 0.641 | 0.621 |
| NCI-H838 | 0.961 | 1.01 | 0.902 | 0.726 | 0.965 | 1.05 | 1.15 | 1.21 | 1.11 | 1.18 | 1.06 | 1.16 | 0.914 | 0.967 | 1.26 | 0.805 | 0.958 | 0.906 | 0.893 | 0.869 |
| EKVX | 1.13 | 1.08 | 0.98 | 1.03 | 0.997 | 0.837 | 0.488 | 0.842 | 1.11 | 0.834 | 0.186 | 0.218 | 0.199 | 0.213 | 0.196 | 0.973 | 0.981 | 1.06 | 1.03 | 0.986 |
| NCI-H1563 | 0.908 | 0.827 | 0.846 | 0.876 | 0.763 | 0.998 | 0.999 | 0.975 | 0.897 | 0.949 | 0.907 | 0.887 | 1.04 | 0.976 | 0.958 | 0.79 | 0.759 | 0.81 | 0.849 | 0.89 |
| RERF-LC-KJ | 1.12 | 1.12 | 1.02 | 1.14 | 1.19 | 0.943 | 0.941 | 0.919 | 0.829 | 0.984 | 0.848 | 1.02 | 1.15 | 0.919 | 0.885 | 0.919 | 0.856 | 0.78 | 0.896 | 0.841 |
| NCI-H1666 | 0.938 | 0.881 | 0.97 | 0.922 | 0.92 | 0.959 | 1.26 | 1.06 | 0.856 | 0.911 | 0.668 | 0.813 | 0.599 | 0.649 | 0.606 | 1.01 | 0.889 | 0.963 | 0.861 | 0.89 |
| NCI-H1755 | 0.973 | 0.973 | 0.932 | 0.971 | 0.967 | 0.925 | 0.923 | 0.947 | 0.987 | 0.935 | 1.11 | 1.23 | 1.01 | 0.996 | 1.01 | 0.901 | 0.878 | 0.838 | 0.939 | 0.901 |
| NCI-H520 | 0.685 | 0.698 | 0.474 | 0.5 | 0.705 | 0.957 | 0.748 | 0.911 | 0.685 | 0.791 | 0.855 | 0.943 | 1.08 | 0.768 | 1.05 | 0.53 | 0.823 | 0.912 | 0.971 | 0.686 |
| PC-14 | 1.04 | 0.894 | 0.81 | 0.826 | 1.08 | 1.07 | 0.907 | 1 | 0.959 | 1.02 | 0.336 | 0.372 | 0.339 | 0.3 | 0.284 | 0.838 | 0.937 | 0.879 | 0.896 | 1.01 |
| NCI-H2405 | 1.03 | 0.982 | 1.03 | 0.946 | 0.958 | 1.05 | 1.02 | 1.03 | 1.12 | 1.04 | 0.86 | 1.16 | 1.05 | 1.1 | 1.03 | 0.826 | 0.922 | 0.87 | 0.853 | 0.914 |
| NCI-H596 | 0.859 | 0.887 | 1.08 | 1.11 | 0.995 | 0.84 | 0.848 | 0.974 | 0.799 | 0.94 | 1.07 | 1.13 | 1.09 | 1.09 | 1.09 | 0.969 | 1.01 | 1.08 | 1.1 | 1.05 |
